Earlier results as cited in patent US11532831B1, “Redox-active compounds and uses thereof” (Palo Alto Research Center Incorporated, priority 2021, dated 2022).

Legend:
[1] = on platinum (footnote); cited from earlier work
[2] = cited from earlier work

Substance | Kinetic rate constant [1] [cm/s] | Solubility at pH 7 [2]
ethylenediaminetetraacetatoferrate(2-) (Fe(II)-EDTA)/ethylenediaminetetraacetatoferrate(1-) (Fe(III)-EDTA) [Fe(EDTA)] | 0.026 | –
iron(II) (Fe^2+)/iron(III) (Fe^3+) [Fe^2+/Fe^3+] | – | insoluble
bis(trimethylammoniopropyl)ferrocene [BTMAP-Fc] | – | 1.9M
